Reference: patent EP4722228A1, “NEW COMPOUND TARGETING MUSK AND USE THEREOF” (The University of Tokyo, priority 2023, dated 2024)
Bridge positions count the residues as written; N and C are the ends. Square brackets hold non-standard residues; d marks the D form. Peptide text beside a SMILES is read from it. I, II: the chains in the order shown. * marks the point of attachment. Palmitoyl = CCCCCCCCCCCCCCCC(=O)*; PEG3 = NCCOCCOCCOCCC(=O)O; Dap = NC[C@H](N)C(=O)O

Tests used:
Assay type in all cases: in vivo
[1] = test system: rat PTMG model using anti-acetylcholine receptor monoclonal antibody (mAb35); assay: Body weight change in rat PTMG model (myasthenia gravis model animals); settings: 0 to 72 hr
Experimental: (§1) 5-week-old female rats (n=20, LEW/CrlCrlj, 4 weeks old when carried in, Jackson Laboratory Japan) were divided into four groups (Group A, Group B, Group C, and Group D) using body weight measurement results as indexes. Vehicle was administered to Group A, and the test compound MuSK7-pal dissolved in vehicle was administered intravenously to each of Group B (3 mg/kg), Group C (2 mg/kg), and Group D (1 mg/kg) (Day 0). Two hours after intravenous administration, an anti-nicotinic acetylcholine receptor monoclonal antibody (mAb35, National Hospital Organization Nagasaki Kawatana Medical Center) dissolved in PBS (pH 7.4) as a drug for inducing the pathology of myasthenia gravis was administered intraperitoneally to all animals at 200 µg/rat (Day 0). The vehicle, which was a solvent of the compound, was phosphate-buffered saline (PBS) at pH 7.4 containing 20% hydroxypropyl-β-cyclodextrin and 0.02% polysorbate 80 (the same applies to Example 3(2)).
Next, the body weight of the animals was measured before antibody administration (pre) and at 0, 9, 24, 33, 48, 57, and 72 hours (hr) after antibody administration. The movement, muscle strength, and grip strength of the animals were evaluated by the following tests.
as §1, with “(n=24,” for “(n=20,”, “(0.5” for “(3”, “(0.25” for “(2”, “(0.1” for “(1”, “0).” for “0). The vehicle, which was a solvent of the compound, was phosphate-buffered saline (PBS) at pH 7.4 containing 20% hydroxypropyl-β-cyclodextrin and 0.02% polysorbate 80 (the same applies to Example 3(2)).”
(§2) 5-week-old female rats (LEW/CrlCrlj, 4 weeks old when carried in, Jackson Laboratory Japan) were divided into three groups (Group A, Group B, and Group C) using body weight measurement results as indexes. The test compound (tetramer of Ub012 (EAAAK)3) dissolved in vehicle was administered intravenously to Group A (5 mg/kg) (n=5), the test compound (tetramer of Ub012(ΔGG) (EAAAK)3) dissolved in vehicle was administered intravenously to Group B (5 mg/kg) (n=5), and vehicle was administered intravenously to Group C (n=5), respectively (Day 0). Two hours after intravenous administration, an anti-nicotinic acetylcholine receptor monoclonal antibody (mAb35, National Hospital Organization Nagasaki Kawatana Medical Center) dissolved in PBS (pH 7.4) as a drug for inducing the pathology of myasthenia gravis was administered intraperitoneally to all animals at 200 µg/rat (Day 0).

[2] = test system: rat PTMG model; assay: Rat PTMG myasthenia gravis model induced by anti-acetylcholine receptor monoclonal antibody (mAb35); settings: 0-72 hr after antibody
Experimental: as §1
Next, the body weight of the animals was measured before antibody administration (pre) and at 0, 9, 24, 33, 48, 57, and 72 hours (hr) after antibody administration. The movement, muscle strength, and grip strength of the animals were evaluated by the following tests. […]
(§3) 5-week-old female rats (n=24, LEW/CrlCrlj, 4 weeks old when carried in, Jackson Laboratory Japan) were divided into four groups (Group A, Group B, Group C, and Group D) using body weight measurement results as indexes. Vehicle was administered to Group A, and the test compound MuSK7-pal dissolved in vehicle was administered intravenously to each of Group B (0.5 mg/kg), Group C (0.25 mg/kg), and Group D (0.1 mg/kg) (Day 0). Two hours after intravenous administration, an anti-nicotinic acetylcholine receptor monoclonal antibody (mAb35, National Hospital Organization Nagasaki Kawatana Medical Center) dissolved in PBS (pH 7.4) as a drug for inducing the pathology of myasthenia gravis was administered intraperitoneally to all animals at 200 µg/rat (Day 0).
The movement of the animals was evaluated at each time point of 9, 24, 33, 48, 57, and 72 hours (hr) after antibody administration according to six-level evaluation criteria (Score). The evaluation criteria were the same as those in (1) B above. […]

[3] = test system: rat PTMG model using anti-acetylcholine receptor monoclonal antibody (mAb35); assay: Wire-hang Test (Hanging Wire Test) in rat PTMG model; settings: approx. 30 hours after antibody
Experimental: as §1
Approximately 30 hours after antibody administration, the muscle strength of the rats was measured using a lid (made of wire mesh) of a lidded plastic cage (Clean 200-TPX cage; CL-0108-2, CLEA Japan, Inc.). Specifically, the rats were left for 15 minutes or longer, and after confirming that they were in a resting state, they were placed on the cage lid. Next, the cage lid was lightly shaken about three times so that the rats would grasp the cage lid, and the cage lid was turned upside down. The inverted lid was held at a height (about 60 cm from the floor), which was high enough to prevent the rats from getting down easily but low enough not to injure them if they fell. The latency until the rats fell from the cage lid was measured for up to 120 seconds.
as §3
The Wire-hang Test was performed approximately 30 hours after antibody administration. The implementation procedure was the same as that in (1) B above.
as §2
The Wire-hang Test was performed approximately 30 hours after antibody administration. The implementation procedure was the same as that in Example 3(1) B.

With CCCCCCCCCCCCCCCC(=O)NCCCC[C@H](NC(=O)[C@H](CNC(=O)CCOCCOCCOCCNC(=O)CNC(=O)[C@@H]1CSCC(=O)N[C@H](Cc2ccc(O)cc2)C(=O)N2CCC[C@H]2C(=O)N[C@@H](CO)C(=O)N[C@@H](Cc2ccc(O)cc2)C(=O)N[C@@H](Cc2c[nH]cn2)C(=O)N[C@@H]([C@@H](C)O)C(=O)N[C@@H](CC(N)=O)C(=O)N[C@@H](C(C)C)C(=O)N[C@@H](C(C)C)C(=O)N[C@@H](C)C(=O)N[C@@H](CO)C(=O)N[C@@H](CC(C)C)C(=O)N[C@@H](CCCCN)C(=O)N[C@@H](CCCNC(=N)N)C(=O)N1)NC(=O)CCOCCOCCOCCNC(=O)CNC(=O)[C@@H]1CSCC(=O)N[C@H](Cc2ccc(O)cc2)C(=O)N2CCC[C@H]2C(=O)N[C@@H](CO)C(=O)N[C@@H](Cc2ccc(O)cc2)C(=O)N[C@@H](Cc2c[nH]cn2)C(=O)N[C@@H]([C@@H](C)O)C(=O)N[C@@H](CC(N)=O)C(=O)N[C@@H](C(C)C)C(=O)N[C@@H](C(C)C)C(=O)N[C@@H](C)C(=O)N[C@@H](CO)C(=O)N[C@@H](CC(C)C)C(=O)N[C@@H](CCCCN)C(=O)N[C@@H](CCCNC(=N)N)C(=O)N1)C(N)=O [MuSK7-pal] (I: {CH2CO}-[dY]PSYHTNVVASLKRCG[PEG3][Dap]K(Palmitoyl)-NH2 / II: {CH2CO}-[dY]PSYHTNVVASLKRCG[PEG3]; amide I:18-II:C; thioether I:N-I:15, II:N-II:15) as the compound, how does the body weight ([1]; 0.1 mg/kg intravenously 2 h before mAb35 (Group D, Example 3(2))) read?
Its body weight is “milder than that in Group A”.

And the body weight ([1]; 0.25 mg/kg intravenously 2 h before mAb35 (Group C, Example 3(2)))?
Its body weight is “milder than that in Group A”.

What about the body weight ([1]; 0.5 mg/kg intravenously 2 h before mAb35 (Group B, Example 3(2))) of the same compound?
The body weight was “milder than that in Group A”.

What about the body weight ([1]; 1 mg/kg intravenously 2 h before mAb35 (Group D, Example 3(1))) of the same compound?
Its body weight is “almost no significant decrease in body weight”.

And the body weight ([1]; 2 mg/kg intravenously 2 h before mAb35 (Group C, Example 3(1)))?
The body weight was “milder than that in Group A”.

What about the body weight ([1]; 3 mg/kg intravenously 2 h before mAb35 (Group B, Example 3(1))) of the same compound?
Its body weight is “milder than that in Group A”.

And the body weight change ([2]; 0.1 mg/kg intravenous (Group D, low-dose study))?
The body weight change was “the degree of decrease in body weight was milder than that in Group A”.

What about the body weight change ([2]; 0.25 mg/kg intravenous (Group C, low-dose study)) of the same compound?
Its body weight change is “the degree of decrease in body weight was milder than that in Group A”.

What about the body weight change ([2]; 0.5 mg/kg intravenous (Group B, low-dose study)) of the same compound?
Its body weight change is “the degree of decrease in body weight was milder than that in Group A”.

What about the body weight change ([2]; 2 mg/kg intravenous (Group C, high-dose study)) of the same compound?
The body weight change was “the degree of decrease in body weight was milder than that in Group A”.

And the body weight change ([2]; 3 mg/kg intravenous (Group B, high-dose study))?
The body weight change was “the degree of decrease in body weight was milder than that in Group A”.

What about the “mean latency to fall” value ([3]; 0.1 mg/kg intravenously (Group D, Example 3(2))) of the same compound?
The value was 25.3 s.

What about the “mean latency to fall” value ([3]; 0.25 mg/kg intravenously (Group C, Example 3(2))) of the same compound?
Its value is 32.3 s.

And the “mean latency to fall” value ([3]; 0.5 mg/kg intravenously (Group B, Example 3(2)))?
Its value is 11.3 s.

And the “mean latency to fall” value ([3]; 1 mg/kg intravenously (Group D, Example 3(1)), max 120 seconds)?
Its value is 69.6 s.

And the “mean latency to fall” value ([3]; 2 mg/kg intravenously (Group C, Example 3(1)), max 120 seconds)?
Its value is 29.2 s.

What about the “mean latency to fall” value ([3]; 3 mg/kg intravenously (Group B, Example 3(1)), max 120 seconds) of the same compound?
Its value is 17.6 s.
